Earlier results in PMC12207366, “Protonated Glutamate and Aspartate Side Chains Can Recognize Phosphodiester Groups via Strong and Short Hydrogen Bonds in Biomacromolecular Complexes” (Angewandte Chemie (International Ed. in English), 2025).

Experiments:
PilF159-302 Q190E = target: T1, PilF159-302 Q190E (Thermus thermophilus, UniProt Q72H73, Q190E); design: method as in PMID 39615687; conditions: in vitro, pH 7.5; cited from earlier work
T1 sequence (Q72H73 159-302 Q190E): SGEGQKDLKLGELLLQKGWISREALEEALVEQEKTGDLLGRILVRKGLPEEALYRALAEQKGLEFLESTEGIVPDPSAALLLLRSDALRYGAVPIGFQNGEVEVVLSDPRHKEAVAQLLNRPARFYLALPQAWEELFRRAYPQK

PilF159-302 Q218E = target: T2, PilF159-302 Q218E (Thermus thermophilus, UniProt Q72H73, Q218E); design: method as in PMID 39615687; conditions: in vitro, pH 7.5; cited from earlier work
T2 sequence (Q72H73 159-302 Q218E): T1 sequence (Q72H73 159-302 Q190E)

For `Nc1nc2c(ncn2C2OC3COP(=O)(O)OC4C(COP(=O)(O)OC3C2O)OC(n2cnc3c(=O)[nH]c(N)nc32)C4O)c(=O)[nH]1` (centres unmarked) [c-di-GMP], the “c-di-GMP binding affinity relative to WT” value (PilF159-302 Q190E) is listed as “significantly reduced affinity” and the “c-di-GMP binding affinity relative to WT” value (PilF159-302 Q218E) is listed as “significantly reduced affinity”.
